In ChEMBL document CHEMBL1649073, “Design and optimization of benzimidazole-containing transient receptor potential melastatin 8 (TRPM8) antagonists” (J Med Chem, 2011):

Key:
[1] = system: Rattus norvegicus; assay: Volume of distribution at steady state in rat at 10 mg/kg, po; assay type: ADME, organism-based; set-up: dose 10 mg/kg, route oral; conditions: in vivo
[2] = Cmax in rat at 10 mg/kg, po; assay type: ADME, organism-based; set-up: dose 10 mg/kg, route oral; conditions: in vivo
[3] = Drug level in rat brain at 3 mg/kg, po after 150 mins; assay type: ADME, organism-based; set-up: dose 3 mg/kg, route oral; conditions: read-out: Drug uptake
[4] = Cmax in dog at 10 mg/kg, po; conditions: in vivo
[5] = Drug level in rat plasma at 3 mg/kg, po after 150 mins; assay type: ADME, organism-based; set-up: dose 3 mg/kg, route oral; conditions: read-out: Drug uptake
[6] = Drug level in rat brain at 5.6 mg/kg, po after 150 mins; assay type: ADME, organism-based; set-up: dose 5.6 mg/kg, route oral; conditions: read-out: Drug uptake
[7] = Drug level in rat brain at 10 mg/kg, po after 150 mins; assay type: ADME, organism-based; set-up: dose 10 mg/kg, route oral; conditions: read-out: Drug uptake
[8] = system: Canis familiaris; assay: Oral bioavailability in dog at 10 mg/kg; conditions: in vivo
[9] = AUC in rat at 10 mg/kg, po; assay type: ADME, organism-based; set-up: dose 10 mg/kg, route oral; conditions: plasma
[10] = Oral bioavailability in rat at 10 mg/kg; assay type: ADME, organism-based; conditions: in vivo
[11] = Drug level in rat plasma at 10 mg/kg, po after 150 mins; assay type: ADME, organism-based; set-up: dose 10 mg/kg, route oral; conditions: read-out: Drug uptake
[12] = Plasma concentration in guinea pig at 10 mg/kg, iv after 5 mins; assay type: ADME, organism-based, Cavia porcellus; set-up: dose 10 mg/kg, route intravenous
[13] = Plasma concentration in Sprague-Dawley rat at 1 to 30 mg/kg, po after 4 hrs; assay type: ADME, organism-based; set-up: dose 1-30 mg/kg, route oral
[14] = Volume of distribution at steady state in dog at 2 mg/kg, iv; assay type: ADME, organism-based, Canis lupus familiaris; set-up: dose 2 mg/kg, route intravenous; conditions: in vivo, read-out: Vdss
[15] = system: Canis familiaris; assay: AUC in dog at 10 mg/kg, po; conditions: in vivo
[16] = Drug level in rat plasma at 5.6 mg/kg, po after 150 mins; assay type: ADME, organism-based; set-up: dose 5.6 mg/kg, route oral; conditions: read-out: Drug uptake
[17] = Volume of distribution at steady state in rat at 2 mg/kg, iv; assay type: ADME, organism-based; set-up: dose 2 mg/kg, route intravenous; conditions: in vivo, read-out: Vdss

Row | Compound | Vdss [1] [L/kg] | Cmax [2] [ng/mL] | concentration at […] [3] [ng/g] | Cmax [4] [ng/mL] | concentration at […] [5] [ng/mL] | concentration at […] [6] [ng/g] | concentration at […] [7] [ng/g] | F [8] [%] | AUC [9] [ng·h/mL] | bioavailability [10] [%] | concentration at […] [11] [ng/mL] | concentration at 5 min [12] [ng/mL] | concentration at 4 h [13] [ng/mL] | Vd [14] [L/kg] | AUC [15] [ng·h/mL] | concentration at […] [16] [ng/mL] | Vd [17] [L/kg]
1 | FC(F)(F)c1ccccc1-c1ccc2nc(C3=NOC4(CCCCC4)C3)[nH]c2c1 | 13.6 | 230 |  |  |  |  |  |  |  |  |  |  |  |  |  |  | 
2 | FC(F)(F)c1ccccc1-c1cc(C(F)(F)F)c2[nH]c(C3=NOC4(CCCCC4)C3)nc2c1 |  | 1260 | 175 | 1640 | 295 | 414 | 638 | 45 | 12300 | 96 | 1040 | 18200 | 254 | 4.43 | 5252 | 662 | 2.92
